One data set concerns CK2. As to conditions: Valsasina et al., 2012; cited from earlier work.
For data set [1], the system named is human prostate tissues. Description: organ bath, ATP-induced contractions of human prostate strips. As to conditions: read-out: inhibition of ATP-induced contraction. The protocol: (§1) Human prostate tissues were obtained from patients undergoing radical prostatectomy for prostate cancer (n=107). Patients who underwent previous transurethral resection of the prostate (TURP) were excluded. This study was carried out in accordance with the Declaration of Helsinki of the World Medical Association, and has been approved by the ethics committee of the Ludwig-Maximilians University, Munich, Germany (Ethikkommission bei der LMU Munchen, approval number 19-737). Informed consent was obtained from all patients. According to the ethical approval, samples and data were collected and analyzed anonymously, so that no data on patients' characteristics were stored. […]
(§2) Prostate strips (6×3×3 mm) were mounted in 10 ml aerated (95% 02 and 5% CO2) tissue baths (Danish Myotechnology, Aarhus, Denmark), containing Krebs-Henseleit solution (37° C., pH 7.4) with following composition: 118 mM NaCl, 4.7 mM KCl, 2.55 mM CaCl2), 1.2 mM KH2PO4, 1.2 mM MgSO4, 25 mM NaHCO3, 7.5 mM glucose. […] Only one curve was recorded with each sample, i. e. for one agonist, or for electric field stimulation (EFS).
(§3) After mounting in organ bath chambers, preparations were stretched to 4.9 mN and left to equilibrate for 45 min. […] After the equilibration period, maximum contraction induced by 80 mM KCl was assessed. […]

For data set [2] the following is noted: in vivo; cited from earlier work.
For data set [3], the system named is human prostate tissues. The data set can be described thus: organ bath, methoxamine-induced contractions of human prostate strips. The protocol:
as §1, §2, §3

Another data set concerns WPMY-1 cells. The data set can be described thus: plate colony formation assay. The class given is cell-based, human. Conditions: 14 days. The protocol:
WPMY-1 cells are an immortalized cell line obtained from human prostate stroma without prostate cancer (Webber et al., 1999). Cells were obtained from American Type Culture Collection (ATCC; Manassas, Va., USA), and kept in RPMI 1640 (Gibco, Carlsbad, Calif., USA) supplemented with 10% fetal calf serum (FCS) and 1% penicillin/streptomycin at 37° C. with 5% CO2. Before addition of onvansertib or DMSO, the medium was changed to a FCS-free medium. For Western blot analysis, cells were lyzed using radioimmunoprecipitation assay (RIPA) buffer (Sigma-Aldrich, St. Louis, Mo., USA), and removed from flasks after 15 min of incubation on ice. Cell debris was removed by centrifugation (10,000 g, 10 min, 4° C.), and different aliquots of supernatants were either subjected to protein determination, or boiled with SDS sample buffer.
Cells were incubated at 37° C. for 14 days, then washed twice with PBS, and fixed by 2 ml of 10% trichloroacetic acid overnight (4° C.). Subsequently, all plates were washed five times with cold water, and stained with 0.4% sulforhodamine B solution (diluted in 1% acetic acid) at room temperature for 30 min. Before taking photos, all plates were labeled and washed five times with 1% acetic acid. The number of colonies containing 50 cells or more was counted under a microscope.

Here are results for one compound from patent publication US20220143021A1 (Cardiff Oncology, Inc., priority 2019, published 2022).

SMILES strings stand for the structures.

Consider `CN1CCN(c2ccc(OC(F)(F)F)c(Nc3ncc4c(n3)-c3c(c(C(N)=O)nn3CCO)CC4)c2)CC1` [onvansertib, 1-(2-hydroxyethyl)-8-{[5-(4-methylpiperazin-1-yl)-2-(trifluoromethoxy)phenyl]amino}-4,5-dihydro-1H-pyrazolo[4,3-h] quinazoline-3-carboxamide], for which, in the data set on CK2, the IC50 (as a rule, the point on the concentration scale where inhibition reaches its midpoint) was 826 nM. Moreover, the inhibition (usually the share of the control response that was lost under treatment) at 0.1 µM in the data set with human prostate tissues [1] came out at 51 ± 18.6%; in the data set on human prostate tissues [3], 43 ± 19.4%. Moreover, the oral bioavailability result in data set [2] is “good oral bioavailability”. In addition, the “decrease of colony formation” value in the data set on WPMY-1 cells (10 nM) is listed as 39±4.5%; in the data set on WPMY-1 cells (50 nM) it was 89±1.9%; with WPMY-1 cells (100 nM) it was 97±0.4%.
